This is an account of results in US7569563B2, “Substituted quinolones II” (AiCuris GmbH & Co. HK, priority 2005, dated 2009).

For one series, the system named is HCMV. Briefly: Anti-HCMV (anti-human cytomegalovirus) cytopathogenicity test. The class given is cell-based. The following applies: for EC50: Human betaherpesvirus 5, 144 h, concentration inhibiting CPE by 50% vs untreated virus control, HCMV-infected NHDF cells, M.O.I. 0.001-0.002, 6 days; for SI HCMV (selectivity index): SI = CC50 (NHDF)/EC50 (HCMV). The protocol:
Anti-HCMV (Anti-Human Cytomegalovirus) Cytopathogenicity Tests The test compounds are employed as 50 millimolar (mM) solutions in dimethyl sulfoxide (DMSO). Ganciclovir®, Foscamet® and Cidofovir® are used as reference compounds. After the addition of in each case 2 μl of the 50, 5, 0.5 and 0.05 mM DMSO stock solutions to 98 μl portions of cell culture medium in row […] for duplicate determinations, 1:2 dilutions are carried out with 50 μl portions of medium up to row 1 l of the 96-well plate. The wells in rows 1 and 12 each contain 50 μl of medium. 150 μl of a suspension of 1×10^4 cells (human prepuce fibroblasts [NHDF]) are then pipetted into each of the wells (row I=cell control) and, in rows 2-12, a mixture of HCMV-infected and uninfected NHDF cells (M.O.I.=0.001-0.002), i.e. 1-2 infected cells per 1000 uninfected cells. Row 12 (without substance) serves as virus control. The final test concentrations are 250-0.0005 μM. The plates are incubated at 37° C./5% CO2 for 6 days, i.e. until all the cells are infected in the virus controls (100% cytopathogenic effect [CPE]). The wells are then fixed and stained by the addition of a mixture of formalin and Giemsa's dye (30 minutes), washed with double-distilled water and dried in a drying oven at 50° C. The plates are then assessed visually using an overhead microscope (plaque multiplier from Technomara). The following data can be acquired from the test plates: EC50 (HCMV)=substance concentration in μM which inhibits the CPE (cytopathic effect) by 50% compared with the untreated virus control; SI (selectivity index)=CC50 (NHDF)/EC50 (HCMV).

Series [1] is described as follows: Cytostatic effects on NHDF cells in the anti-HCMV cytopathogenicity test. The format is cell-based. To be noted: human, human prepuce fibroblasts (NHDF cells); substance concentration at which no visible cytostatic effects on NHDF cells are evident vs untreated cell control; 6 days incubation. The protocol: Anti-HCMV (Anti-Human Cytomegalovirus) Cytopathogenicity Tests The test compounds are employed as 50 millimolar (mM) solutions in dimethyl sulfoxide (DMSO). Ganciclovir®, Foscamet® and Cidofovir® are used as reference compounds. After the addition of in each case 2 μl of the 50, 5, 0.5 and 0.05 mM DMSO stock solutions to 98 μl portions of cell culture medium in row […] for duplicate determinations, 1:2 dilutions are carried out with 50 μl portions of medium up to row 1 l of the 96-well plate. The wells in rows 1 and 12 each contain 50 μl of medium. 150 μl of a suspension of 1×10^4 cells (human prepuce fibroblasts [NHDF]) are then pipetted into each of the wells (row I=cell control) and, in rows 2-12, a mixture of HCMV-infected and uninfected NHDF cells (M.O.I.=0.001-0.002), i.e. 1-2 infected cells per 1000 uninfected cells. Row 12 (without substance) serves as virus control. The final test concentrations are 250-0.0005 μM. The plates are incubated at 37° C./5% CO2 for 6 days, i.e. until all the cells are infected in the virus controls (100% cytopathogenic effect [CPE]). The wells are then fixed and stained by the addition of a mixture of formalin and Giemsa's dye (30 minutes), washed with double-distilled water and dried in a drying oven at 50° C. The plates are then assessed visually using an overhead microscope (plaque multiplier from Technomara). The following data can be acquired from the test plates: CC50 (NHDF)=substance concentration in μM at which no visible cytostatic effects on the cells are evident compared with the untreated cell control;
In general terms: Protection from cytopathic effect is a common read-out in antiviral testing.

Counter-ions that a name gives are not always drawn.

One may read the EC50 as the concentration needed to bring the measured effect to its halfway point. Higher therefore signals lower potency in that assay. A word on the CC50: it is the concentration at which the toxic effect on the cells reaches its halfway point. Take `CCOC(=O)CN1[C@H](C)CN(c2c(F)cc3c(=O)c(C(=O)NCc4ccc(Cl)cc4Cl)cn(CC(F)(F)F)c3c2OC)C[C@@H]1C` [Example 1, Ethyl{(2RS,6SR)-4-[3-{[(2,4-dichlorobenzyl)amino]carbonyl}-6-fluoro-8-methoxy-4-oxo-1-(2,2,2-trifluoroethyl)-1,4-dihydroquinolin-7-yl]-2,6-dimethylpiperazin-1-yl}ethanoate hydroformate]: in the series on HCMV, it took 0.019 µM to reach a half-maximal effect (EC50) and the “SI HCMV (selectivity index)” value was found to be 579. In series [1], the midpoint of cytotoxicity, the CC50 at 6 days, lay at 11 µM.

For `COc1c(N2C[C@@H](C)N(CC(=O)O)[C@@H](C)C2)c(F)cc2c(=O)c(C(=O)NCc3ccc(Cl)cc3Cl)cn(CC(F)(F)F)c12` [Example 28, {(2RS,6SR)-4-[3-{[(2,4-Dichlorobenzyl)amino]carbonyl}-6-fluoro-8-methoxy-4-oxo-1-(2,2,2-trifluoroethyl)-1,4-dihydroquinolin-7-yl]-2,6-dimethylpiperazin-1-yl}ethanoic acid hydroformate], in the series with HCMV, it took 0.0023 µM to reach a half-maximal effect (EC50) and the “SI HCMV (selectivity index)” value is 8032. The CC50 at 6 days in series [1] was determined as 18 µM.

For the compound `COc1c(N2C[C@@H](C)N(CC(=O)O)[C@@H](C)C2)c(F)cc2c(=O)c(C(=O)NCc3ccc(Cl)cc3Cl)cn(C3CC3)c12` [Example 29, 4-[3-{1-Cyclopropyl-[(2,4-dichlorobenzyl)amino]carbonyl}-1-fluoro-8-methoxy-4-oxo-1,4-dihydroquinolin-7-yl]-(2RS,6SR)-2,6-dimethylpiperazin-1-yl}ethanoic acid hydrochloride], in the series on HCMV, the EC50 was 0.01 µM and the “SI HCMV (selectivity index)” value came to 4700. Moreover, in series [1], the cytotoxic concentration (CC50) at 6 days stood at 47 µM.

`COc1c(N2C[C@@H](C)N(CC(=O)O)[C@@H](C)C2)c(F)cc2c(=O)c(C(=O)NCc3ccc(Cl)cc3Cl)cn(CCF)c12` [Example 30]: in the series on HCMV, the response was half-maximal at 0.008 µM (EC50) and the “SI HCMV (selectivity index)” value was 5875. Besides, half-maximal cytotoxicity in series [1] (CC50 at 6 days) was put at 47 µM.

Take `COc1c(N2C[C@@H](C)N(CC(=O)O)[C@@H](C)C2)c(F)cc2c(=O)c(C(=O)NCc3ccc(Cl)cc3C)cn([C@H]3C[C@H]3F)c12` [Example 36]: in the series on HCMV, the EC50 worked out at 0.005 µM and the “SI HCMV (selectivity index)” value was determined as 6402. Half-maximal cytotoxicity in series [1] (CC50 at 6 days) was put at 24 µM.

Consider `COc1c(N2C[C@@H](C)N(C(C)C(=O)O)[C@@H](C)C2)c(F)cc2c(=O)c(C(=O)NCc3ccc(Cl)cc3Cl)cn(C3CC3)c12` (stereo partly drawn) [Example 49], for which, in the series on HCMV, the EC50 came out at 0.018 µM and the “SI HCMV (selectivity index)” value came to 5222. Moreover, in series [1], the midpoint of cytotoxicity, the CC50 at 6 days, lay at 94 µM.
